One data set has as its system HCC38. Briefly: Drug sensitivity (PRISM) of breast cancer cell line HCC38. The data set is classed as cell-based, human. As to conditions: TNBC cell line HCC38; categorised from IC50, ln(IC50), EC50, ln(EC50). The text has this: (§1) Drug Sensitivity Data of Breast Cancer Cell Lines The drug sensitivity data of breast cancer cell lines were obtained from two distinct sources. The first source was the Profiling Relative Inhibition Simultaneously in Mixtures (PRISM) [Corsello, S. M.; Nagari, R. T.; Spangler, R. D.; Rossen, J.; Kocak, M.; Bryan, J. G.; Humeidi, R.; Peck, D.; Wu, X.; Tang, A. A.; et al. Discovering the anti-cancer potential of non-oncology drugs by systematic viability profiling. Nature cancer 2020, 1, 235-248, doi:10.1038/s43018-019-0018-6] secondary screen data, which was provided in the DepMap 19Q4 data release (https://depmap.org/portal, accessed on 23 May 2023). The second source encompassed the Genomics of Drug Sensitivity in Cancer (GDSC1 and GDSC2) datasets [Yang, W.; Soares, J.; Greninger, P.; Edelman, E. J.; Lightfoot, H.; Forbes, S.; Bindal, N.; Beare, D.; Smith, J. A.; Thompson, I. R.; et al. Genomics of Drug Sensitivity in Cancer (GDSC): a resource for therapeutic biomarker discovery in cancer cells. Nucleic acids research 2013, 41, D955-961, doi:10.1093/nar/gksllll, Iorio, F.; Knijnenburg, T. A.; Vis, D. J.; Bignell, G. R.; Menden, M. P.; Schubert, M.; Aben, N.; Goncalves, E.; Barthorpe, S.; Lightfoot, H.; et al. A Landscape of Pharmacogenomic Interactions in Cancer. Cell 2016, 166, 740-754, doi:10.1016/j.cell.2016.06.017, Garnett, M. J.; Edelman, E. J.; Heidorn, S. J.; Greenman, C. D.; Dastur, A.; Lau, K. W.; Greninger, P.; Thompson, I. R.; Luo, X.; Soares, J.; et al. Systematic identification of genomic markers of drug sensitivity in cancer cells. Nature 2012, 483, 570-575, doi:10.1038/nature11005], which were made available through CancerRxGene (https://www.cancerrxgene.org/, accessed on 25 May 2023). In this study, we examined drug sensitivity using various measurements, including IC50, ln(IC50), EC50, and ln(EC50). Further details regarding the categorization of drug sensitivity and resistance can be found in our previous work [Ye, Q.; Mohamed, R.; Dukhlallah, D.; Gencheva, M.; Hu, G.; Pearce, M. C.; Kolluri, S. K.; Marsh, C. B.; Eubank, T. D.; Ivanov, A. V.; et al. Molecular Analysis of ZNF71 KRAB in Non-Small-Cell Lung Cancer. International journal of molecular sciences 2021, 22, doi:10.3390/ijms22073752, Ye, Q.; Singh, S.; Qian, P. R.; Guo, N. L. Immune-Omics Networks of CD27, PD1, and PDL1 in Non-Small Cell Lung Cancer. Cancers (Basel) 2021, 13, doi:10.3390/cancers13174296].
(§2) For drug sensitivity analysis, we classified the breast cancer cell lines as sensitive or resistant to each drug based on the measurements of IC50, ln(IC50), EC50, and ln(EC50), following the classification method described in our previous publications. Both mRNA and protein expression levels were considered in determining the association with drug sensitivity.
(§3) Drug Sensitivity in CCLE. This study used drug sensitivity data of human breast cancer cell lines from various sources. The DepMap portal provided the secondary Profiling Relative Inhibition Simultaneously in Mixtures (PRISM) [Corsello, S. M.; Nagari, R. T.; Spangler, R. D.; Rossen, J.; Kocak, M.; Bryan, J. G.; Humeidi, R.; Peck, D.; Wu, X.; Tang, A. A.; et al. Discovering the anti-cancer potential of non-oncology drugs by systematic viability profiling. Nat. Cancer 2020, 1, 235-248. https://doi.org/10.1038/s43018-019-0018-6] repurposing dataset (PRISM repurposing 19Q4, accessed on 3 Apr. 2023), which includes screening results of 1447 compounds in 22 human breast cancer cell lines. Additionally, we downloaded the Genomics of Drug Sensitivity in Cancer (GDSC1 and GDSC2) datasets [Yang, W.; Soares, J.; Greninger, P.; Edelman, E. J.; Lightfoot, H.; Forbes, S.; Bindal, N.; Beare, D.; Smith, J. A.; Thompson, I. R.; et al. Genomics of Drug Sensitivity in Cancer (GDSC): A resource for therapeutic biomarker discovery in cancer cells. […]

The test system of the next data set is HCC1143. Briefly: Drug sensitivity categorisation of breast cancer cell line HCC1143. The data set is classed as cell-based, human. The settings on record: TNBC cell line HCC1143; categorised from IC50, ln(IC50), EC50, ln(EC50).
Text: as §1, §2

In the next data set the test system is advanced solid tumors. As to conditions: Phase I, cited from earlier work.
A further data set has as its system HCC1806. Kind of data set: Drug sensitivity categorisation of breast cancer cell line HCC1806. The data set is classed as cell-based, human. As to conditions: TNBC cell line HCC1806; categorised from IC50, ln(IC50), EC50, ln(EC50).
Text: as §1, §2

The test system of the next data set is MCF7 cells. Kind of data set: Drug sensitivity categorisation of breast cancer cell line MCF7. The format is cell-based, human. As to conditions: Luminal A MCF7 cells; categorised from IC50, ln(IC50), EC50, ln(EC50).
Text: as §1, §2

The subject of the next data set is HCC1937. Briefly: Drug sensitivity (PRISM) of breast cancer cell line HCC1937. The format is cell-based, human. The settings on record: TNBC cell line HCC1937; categorised from IC50, ln(IC50), EC50, ln(EC50).
Text: as §1, §2, §3

The conditions of data set [1]: Phase II clinical studies; cited from earlier work.
The conditions of data set [2]: Phase I clinical trials; cited from earlier work.
Another data set concerns T47D breast cancer cells. As to conditions: cited from earlier work.
The next data set deals with human NSCLC cell lines. Briefly: PRISM drug response (IC50/EC50) in CCLE NSCLC cell lines. The data set is classed as cell-based. As to conditions: average across CCLE human NSCLC cell lines, PRISM data.
[3] abbreviates: patients with advanced solid tumors.

Structures are written as SMILES.

Text for human NSCLC cell lines: Drug Response. The PRISM (Profiling Relative Inhibition Simultaneously in Mixtures) framework [Corsello, S. M., et al., Discovering the anti-cancer potential of non-oncology drugs by systematic viability profiling. […] 235-248] is a computational tool that estimates drug sensitivities of cancer cell lines using molecular profiling data, particularly gene expression data from the CCLE database. It was obtained the PRISM repurposing dataset of the secondary screen from DepMap release PRISM Repur-posing 19Q4 (https://depmap.org/portal/download/all/, accessed on 25 Jan. 2023). For this study, the PRISM drug response data was used from 94 NSCLC cell lines for 1,448 compounds to investigate the drug sensitivity of specific genes.

With `c1ccc2c(CCNc3ccc(Nc4ccncc4)cc3)c[nH]c2c1` [serdemetan], in the data set on HCC38, the “cell line sensitive or resistant to drug” value is “sensitive”. For the same molecule, in the data set on HCC1143, the “cell line sensitive or resistant to drug” value is reported as “sensitive”. Moreover, the tumor response result in the data set on advanced solid tumors (a breast cancer patient) is on record as “partial response”. In the data set on advanced solid tumors (setting [3]), the QTc liability result is listed as “exposure-related QTc liability” and the tolerability result is on record as “well tolerated”.

As for `O=C(NOC[C@H](O)CO)c1ccc(F)c(F)c1Nc1ccc(I)cc1F` [PD0325901], the “cell line sensitive or resistant to drug” value is listed as “resistant” with HCC38; “sensitive” in the data set with HCC1806; “sensitive” in the data set with HCC1143; “resistant” with MCF7 cells; “resistant” in the data set on HCC1937.

Regarding `O=C(NC[C@H](O)CO)c1ccncc1Nc1ccc(I)cc1F` [AS703026], the “cell line sensitive or resistant to drug” value in the data set on HCC1806 and with HCC1937 was “resistant” throughout.

With `Cc1cnc(Nc2ccc(OCCN3CCCC3)cc2)nc1Nc1cccc(S(=O)(=O)NC(C)(C)C)c1` [TG101348], the “cell line sensitive or resistant to drug” value in the data set on HCC1806, in the data set on MCF7 cells and in the data set with HCC1937 was “sensitive” each time.

For `N#C/C(=C(/N)Sc1ccc(N)cc1)c1ccccc1C(F)(F)F` [BRD-K12244279], the “cell line sensitive or resistant to drug” value in the data set on MCF7 cells is on record as “resistant”.

On to `O=C(NOCC1CC1)c1ccc(F)c(F)c1Nc1ccc(I)cc1Cl` [PD184352], for which the “cell line sensitive or resistant to drug” value was “resistant” in the data set on HCC38, “sensitive” in the data set with HCC1143 and “sensitive” in the data set with MCF7 cells. Further, the efficacy result in [1] is reported as “insufficient efficacy”. Besides, the tolerability result in [2] is “well tolerated”.

Consider `COc1cccc(-c2cc(=O)c3ccccc3o2)c1N` [PD98059], for which the “cell line sensitive or resistant to drug” value in the data set with HCC38 is reported as “sensitive”; in the data set on HCC1806, “sensitive”; in the data set on MCF7 cells it was “sensitive”; in the data set with HCC1937, “resistant”. Moreover, the “ERK phosphorylation response to MEK inhibition” value with T47D breast cancer cells is “resistance”.

Take `N#CC(=C(/N)Sc1ccccc1N)/C(C#N)=C(\N)Sc1ccccc1N` [U0126]: the “ERK phosphorylation response to MEK inhibition” value in the data set with T47D breast cancer cells is given as “resistance”. Further, in the data set on MCF7 cells, the “cell line sensitive or resistant to drug” value is listed as “sensitive”.

Take `O=C(Nc1cccc(Nc2ncc(Br)c(NCCc3cnc[nH]3)n2)c1)N1CCCC1` [BX-912]: the “averaged IC50 and EC50” value with human NSCLC cell lines was “low”.

For `CC[C@@H]1C(=O)OC[C@@H]1Cc1cncn1C` [pilocarpine], the “cell line sensitive or resistant to drug” value in the data set on HCC38, in the data set on HCC1806, with HCC1143 and in the data set with HCC1937 was “sensitive” each time.

Turning to `C[C@@H](N)[C@H]1CC[C@H](C(=O)Nc2ccncc2)CC1` [Y-27632], the “cell line sensitive or resistant to drug” value in the data set on HCC38, with HCC1806 and with HCC1143 was “sensitive” throughout.

Consider `Cc1cc(I)ccc1Nc1c(C(=O)NOCC2CC2)cc(F)c(F)c1F` [PD198306], for which the “cell line sensitive or resistant to drug” value in the data set with HCC38 was “resistant”; in the data set on HCC1806, “sensitive”; with HCC1143 it was “sensitive”; in the data set on MCF7 cells, “sensitive”; in the data set with HCC1937, “resistant”. For the same molecule, the “ERK phosphorylation response to MEK inhibition” value with T47D breast cancer cells is reported as “resistance”.

On to `Cc1cn(-c2cc(NC(=O)c3ccc(C)c(Nc4nccc(-c5cccnc5)n4)c3)cc(C(F)(F)F)c2)cn1` [nilotinib], for which the “cell line sensitive or resistant to drug” value with HCC38 was “resistant”; in the data set with HCC1806 it was “sensitive”; in the data set on HCC1143 it was “resistant”; in the data set with HCC1937, “resistant”.

With `C(#CCN1CCCC1)CN1CCCC1` [tremorine], the “cell line sensitive or resistant to drug” value in the data set on HCC38, in the data set with HCC1806, in the data set with HCC1143 and with HCC1937 was “sensitive” each time.

As for `OCc1ccc(-c2ccc(-c3ccc(CO)s3)o2)s1` [RITA], the “cell line sensitive or resistant to drug” value in the data set on HCC38, in the data set on HCC1806, in the data set with HCC1143, with MCF7 cells and in the data set on HCC1937 was “sensitive” each time.

On to `CNC(=O)c1cc(Oc2ccc(NC(=O)Nc3ccc(Cl)c(C(F)(F)F)c3)cc2)ccn1` [sorafenib], for which the “cell line sensitive or resistant to drug” value in the data set with HCC38 and in the data set with HCC1806 was “sensitive” each time.

With `COc1cccc2c1C(=O)c1c(O)c3c(c(O)c1C2=O)C[C@@](O)(C(C)=O)C[C@@H]3O[C@H]1C[C@H](N)[C@H](O)[C@H](C)O1` [daunorubicin], in the data set on human NSCLC cell lines, the “averaged IC50 and EC50” value is “low”.

Values taken from US20240336977A1, “MICRORNA-REGULATED BIOMARKERS AND DRUG TARGETS FOR IMPROVING DIAGNOSIS AND TREATMENT OF LUNG OR BREAST CANCER” (West Virginia University Board of Governors on behalf of …, priority 2023, published 2024).
